# Assay: physchem
structure (smiles),measurement,setting,value
NCC(=O)Nc1ccc(-n2nc(C(F)(F)F)cc2-c2ccc3c(ccc4ccccc43)c2)cc1 [AR-12],solubility,"USP biphthalate buffer, pH 3.5, aqueous buffer",0.18 µg/mL
same,solubility,"USP biphthalate buffer, pH 5, aqueous buffer",0.07 µg/mL
same,solubility,"USP chloride buffer, pH 1.2, simulated gastric fluid",65.3 µg/mL
same,solubility,"USP phosphate buffer, pH 7.4, aqueous buffer",0.06 µg/mL
